Read-outs that look alike come from different tables or passages of the source.
Key:
[1] = Cytotoxicity assay in MT-4 cells; format: cell-based, human; settings: human, uninfected MT-4 cells, 5 days incubation; read-out: CC50
Summary of the method: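 For cytotoxicity, uninfected MT-4 cells were incubated with compounds 5 days at 37 °C, with 10 μM puromycin marking base cytotoxicity. Parallel plates used HIV-1 IIIB-infected (1:250 stock dilution) or mock cells with 5 μM AZT and no-drug controls. Read-out: CellTiter-Glo chemiluminescence.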

pLai RLuc reporter virus = test: microbe, parasite or virus in culture; format: cell-based, HIV
Summary of the method: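 Read-out is Renilla luciferase after 72 h at 37 °C in MT-4 cells infected 2 h beforehand with pLai RLuc reporter virus; compounds diluted 1:3.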

HIV-1 (IIIB) = test: Antiviral assay in MT-4 cells (HIV MT-4 antiviral assay); format: cell-based; settings: Human immunodeficiency virus 1, IIIB, MT4, 120 h, HIV-1 (IIIB) in MT-4 cells, 5 days incubation; read-out: EC50
Summary of the method: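 Read-out is CellTiter-Glo chemiluminescence after 5-day culture at 37° C, giving protection of MT-4 cells from HIV-1 IIIB cytopathicity. Compounds tested in 1:3 dilution series in complete RPMI; controls were no drug, mock infection and 5 μM AZT.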

[2] = Human immunodeficiency virus 1, 72 h, read-out: Antiviral Serum Shift RLuc 50% HS, HS/CCM (RPMI media, 10% FBS, 50% HS, 1% P/S), 72-h incubation
[3] = Human immunodeficiency virus 1, 72 h, read-out: Antiviral Serum Shift RLuc CCM, CCM (RPMI media, 10% FBS, 1% P/S), 72-h incubation

Row | Compound | CC50 at 5 days [1] | EC50 (pLai RLuc reporter virus; [2]) | EC50 (pLai RLuc reporter virus; [3]) | EC50 (HIV-1 (IIIB)) | EC50 (pLai RLuc reporter virus; read-out: Antiviral Serum Shift RLuc 50% HS, HS/CCM (RPMI media, 10% FBS, 50% HS, 1% P/S), 72-h incubation)
1 | O=C(NCc1c(F)cc(F)cc1F)c1cn2c(c(O)c1=O)C(=O)N1CCc3ccc(Br)cc3[C@H]2C1 (single isomer, unassigned) [Example 122-1] | 4740 nM | 4.78 nM | 0.534 nM | 2.57 nM | –
2 | O=C(NCc1ccc(F)cc1F)c1cn2c(c(O)c1=O)C(=O)N1CCCOC[C@H]2C1 [Example 1-2, (R)-N-(2,4-difluorobenzyl)-13-hydroxy-1,12-dioxo-1,4,5,7,8,12-hexahydro-3H-2,8-methanopyrido[1,2-d][1,4,7]oxadiazecine-11-carboxamide] | 20700 nM | 13.9 nM | 1.37 nM | 5.7 nM | –
3 | O=C(NCc1ccc(F)c(Cl)c1F)c1cn2c(c(O)c1=O)C(=O)N1CC2CCc2cccc(F)c21 (stereo not shown) [Example 67, N-(3-chloro-2,4-difluorobenzyl)-4-fluoro-7-hydroxy-6,8-dioxo-6,8,13,14-tetrahydro-12H-5,12-methanobenzo[e]pyrido[1,2-a][1,4]diazonine-9-carboxamide] | 23900 nM | 1.49 nM | 0.437 nM | 2.44 nM | –
4 | O=C(NCc1ccc(F)c(Cl)c1F)c1cn2c(c(O)c1=O)C(=O)N1CCCC(F)(F)[C@@H]2C1 (single isomer, unassigned) [Example 117-2] | 15700 nM | 1270 nM | 0.603 nM | 3.53 nM | –
5 | C[C@]1(F)CCCN2C[C@@H]1n1cc(C(=O)NCc3ccc(F)cc3F)c(=O)c(O)c1C2=O (single isomer, unassigned) [Example 60-2] | 14000 nM | 102 nM | 0.328 nM | 1.97 nM | –
6 | C[C@@]12Cc3cc(F)c(F)cc3CN(C1)C(=O)c1c(O)c(=O)c(C(=O)NCc3c(F)cc(F)cc3F)cn12 (single isomer, unassigned) [Example 191-1] | 11600 nM | 2.69 nM | 0.611 nM | 2.61 nM | –
7 | O=C(NCc1c(F)cc(F)cc1F)c1cn2c(c(O)c1=O)C(=O)N1CC[C@@H](F)CC[C@H]2C1 [Example 81-2, (5S,8S)-5-fluoro-13-hydroxy-1,12-dioxo-N-(2,4,6-trifluorobenzyl)-1,3,4,5,6,7,8,12-octahydro-2,8-methanopyrido[1,2-a][1,4]diazecine-11-carboxamide] | 11200 nM | 0.737 nM | 0.304 nM | 1.35 nM | –
8 | C[C@H]1OC[C@H](C)N2C[C@H]1n1cc(C(=O)NCc3c(F)cc(F)cc3F)c(=O)c(O)c1C2=O [Example 195, (3S,6R,7R)-12-hydroxy-3,6-dimethyl-1,11-dioxo-N-(2,4,6-trifluorobenzyl)-1,3,4,6,7,11-hexahydro-2,7-methanopyrido[1,2-d][1,4,7]oxadiazonine-10-carboxamide] | 16700 nM | 10.4 nM | 0.441 nM | 1.73 nM | –
9 | O=C(NCc1c(F)cc(F)cc1F)c1cn2c(c(O)c1=O)C(=O)N1C[C@@H]2CCC(F)(F)C1 [Example 3-2, (7S)-4,4-difluoro-12-hydroxy-1,11-dioxo-N-(2,4,6-trifluorobenzyl)-1,4,5,6,7,11-hexahydro-3H-2,7-methanopyrido[1,2-a][1,4]diazonine-10-carboxamide] | > 43300 nM | 3.86 nM | 1.6 nM | 5.4 nM | –
10 | C[C@H]1CC(F)(F)C[C@H]2CN1C(=O)c1c(O)c(=O)c(C(=O)NCc3c(F)cc(F)cc3F)cn12 [Example 113, (3S,7S)-5,5-difluoro-12-hydroxy-3-methyl-1,11-dioxo-N-(2,4,6-trifluorobenzyl)-1,4,5,6,7,11-hexahydro-3H-2,7-methanopyrido[1,2-a][1,4]diazonine-10-carboxamide] | 16900 nM | 0.62 nM | 0.514 nM | 1.42 nM | –
11 | O=C(NCc1c(F)cc(F)cc1F)c1cn2c(c(O)c1=O)C(=O)N1C[C@@H]2CCc2c(Cl)cccc21 [Example 45-1, (12S)-1-chloro-7-hydroxy-6,8-dioxo-N-(2,4,6-trifluorobenzyl)-6,8,13,14-tetrahydro-12H-5,12-methanobenzo[e]pyrido[1,2-a][1,4]diazonine-9-carboxamide] | 6900 nM | 2.56 nM | 0.359 nM | 1.66 nM | –
12 | C[C@H]1CCC[C@@H]2CN1C(=O)c1c(O)c(=O)c(C(=O)NCc3ccc(F)cc3F)cn12 [Example 52-2, (3S, 7R)—N-(2,4-difluorobenzyl)-12-hydroxy-3-methyl-1,11-dioxo-1,4,5,6,7,11-hexahydro-3H-2,7-methanopyrido[1,2-a][1,4]diazonine-10-carboxamide] | 5840 nM | 2.19 nM | 0.384 nM | 1.68 nM | –
13 | CC1CCCN2CC1n1cc(C(=O)NCc3ccc(F)cc3F)c(=O)c(O)c1C2=O (stereo not shown) [Example 17-1b, N-(2,4-difluorobenzyl)-12-hydroxy-6-methyl-1,11-dioxo-1,4,5,6,7,11-hexahydro-3H-2,7-methanopyrido[1,2-a][1,4]diazonine-10-carboxamide] | 10900 nM | – | 0.26 nM | 1.2 nM | 3.1 nM
14 | O=C(NCc1c(F)cc(F)c(F)c1F)c1cn2c(c(O)c1=O)C(=O)N1CCCC[C@H]2C1 [Example 125, (7S)-12-hydroxy-1,11-dioxo-N-(2,3,4,6-tetrafluorobenzyl)-1,4,5,6,7,11-hexahydro-3H-2,7-methanopyrido[1,2-a][1,4]diazonine-10-carboxamide] | 10200 nM | 1.97 nM | 0.328 nM | 2.95 nM | –
15 | O=C(NCc1ccc(F)c(Cl)c1F)c1cn2c(c(O)c1=O)C(=O)N1CCC=C[C@H]2C1 [Example 171, (7S)—N-(3-chloro-2,4-difluorobenzyl)-12-hydroxy-1,11-dioxo-1,4,7,11-tetrahydro-3H-2,7-methanopyrido[1,2-a][1,4]diazonine-10-carboxamide] | 4190 nM | 8.5 nM | 0.387 nM | 0.962 nM | –
16 | O=C(NCc1ccc(F)cc1F)c1cn2c(c(O)c1=O)C(=O)N1CCC=C[C@H]2C1 [Example 169, (7S)—N-(2,4-difluorobenzyl)-12-hydroxy-1,11-dioxo-1,4,7,11-tetrahydro-3H-2,7-methanopyrido[1,2-a][1,4]diazonine-10-carboxamide] | 11800 nM | 2.89 nM | 0.322 nM | 1.4 nM | –
17 | O=C(NCc1c(F)cc(F)cc1F)c1cn2c(c(O)c1=O)C(=O)N1CC[C@H](O)CC[C@H]2C1 [Example 83-2, (5R,8S)-5,13-dihydroxy-1,12-dioxo-N-(2,4,6-trifluorobenzyl)-1,3,4,5,6,7,8,12-octahydro-2,8-methanopyrido[1,2-a][1,4]diazecine-11-carboxamide] | > 50000 nM | 2.08 nM | 2.15 nM | 12.8 nM | –
18 | C[C@@H]1CC[C@H]2CN(C(=O)c3c(O)c(=O)c(C(=O)NCc4c(F)cc(F)cc4F)cn32)[C@H]1C [Example 108-1, (3S,4R,7S)-12-hydroxy-3,4-dimethyl-1,11-dioxo-N-(2,4,6-trifluorobenzyl)-1,4,5,6,7,11-hexahydro-3H-2,7-methanopyrido[1,2-a][1,4]diazonine-10-carboxamide] | 16100 nM | 1.31 nM | 0.2 nM | 0.997 nM | –
19 | O=C(NCc1c(F)cc(F)cc1F)c1cn2c(c(O)c1=O)C(=O)N1C[C@@H]2CCC[C@@H]1C(F)F [Example 131, (3R, 7S)-3-(difluoromethyl)-12-hydroxy-1,11-dioxo-N-(2,4,6-trifluorobenzyl)-1,4,5,6,7,11-hexahydro-3H-2,7-methanopyrido[1,2-a][1,4]diazonine-10-carboxamide] | 10200 nM | 11 nM | 0.25 nM | 1.68 nM | –
20 | O=C(NCc1c(F)cc(F)cc1F)c1cn2c(c(O)c1=O)C(=O)N1C[C@@H]2C[S+]([O-])c2ccccc21 (stereo partly drawn) [Example 95, (6R)-1-hydroxy-2,14-dioxo-N-(2,4,6-trifluorobenzyl)-2,6,7,14-tetrahydro-6,13-methanobenzo[b]pyrido[2,1-f][1,4,7]thiadiazonine-3-carboxamide 8-oxide] | > 50000 nM | 4.84 nM | 5.18 nM | 31.5 nM | –
21 | O=C(NCc1c(F)cc(F)c(Cl)c1F)c1cn2c(c(O)c1=O)C(=O)N1CCCC[C@H]2C1 [Example 74, (7S)—N-(3-chloro-2,4,6-trifluorobenzyl)-12-hydroxy-1,11-dioxo-1,4,5,6,7,11-hexahydro-3H-2,7-methanopyrido[1,2-a][1,4]diazonine-10-carboxamide] | 7280 nM | 13.8 nM | 0.492 nM | 1.52 nM | –
22 | O=C(NCc1c(F)cc(F)cc1F)c1cn2c(c(O)c1=O)C(=O)N1CC(F)CC[C@H]2C1 (stereo partly drawn) [Example 178, (7S)-4-fluoro-12-hydroxy-1,11-dioxo-N-(2,4,6-trifluorobenzyl)-1,4,5,6,7,11-hexahydro-3H-2,7-methanopyrido[1,2-a][1,4]diazonine-10-carboxamide] | 16700 nM | 6.56 nM | 0.43 nM | 2.14 nM | –

From patent publication US12227520B2 (priority 2019, dated 2025)
